Square brackets hold non-standard residues; d marks the D form. Ends that are not written are not given here.
Assays:
anesthetized cats = assay: Cardiovascular effects in cats anesthetized with pentobarbital (blood pressure, heart rate, vasomotor reflex elicited by carotis occlusion); type: in vivo
Protocol: In addition to the effects on the blood pressure and heart rate, the actions on the vasomotor reflex elicited by carotis occlusion, were also studied. […] The duration of the former effects was 20-25 min., while that of the latter was 40-60 min. […] It is noteworthy that the reference compound morphine […] hypotension of similar magnitude produced by 0.1 mg/kg of peptides only in doses higher than 1.0 mg/kg (Table 2).
(a) Cats of both sexes, weighing 3000-4000 g, anesthetized with 35 mg/kg pentobarbital, i.p.
(b) C.O.: Inhibition of vasomotor reflex elicited by carotis occlusion;

mouse vas deferens (MVD) = details: literature comparison of GPI and MVD preparations; cited from earlier work

CN1CC[C@]23c4c5ccc(O)c4O[C@H]2[C@@H](O)C=C[C@H]3[C@H]1C5 [Morphine, morphine]
Decrease of heart rate (anesthetized cats; 0.2 mg/kg i.v.): .phi. | Fall in blood pressure (anesthetized cats; 0.2 mg/kg i.v.): 6.7 ± 2.1 mm Hg | Inhibition of C.O. (vasomotor reflex elicited by carotis occlusion) (anesthetized cats; 0.2 mg/kg i.v.): .phi. | Decrease of heart rate (anesthetized cats; 1.0 mg/kg i.v.): 10.2 ± 2.3 beat/min. | Fall in blood pressure (anesthetized cats; 1.0 mg/kg i.v.): 16.7 ± 3.2 mm Hg | Inhibition of C.O. (vasomotor reflex elicited by carotis occlusion) (anesthetized cats; 1.0 mg/kg i.v.): + (inhibition is smaller than 50%) | Decrease of heart rate (anesthetized cats; 5.0 mg/kg i.v.): 16.7 ± 3.5 beat/min. | Fall in blood pressure (anesthetized cats; 5.0 mg/kg i.v.): 33.6 ± 6.7 mm Hg | Inhibition of C.O. (vasomotor reflex elicited by carotis occlusion) (anesthetized cats; 5.0 mg/kg i.v.): ++ (inhibition is higher than 50%) | Dose eliciting hypotension of similar magnitude to that produced by 0.1 mg/kg of peptides (anesthetized cats; i.v.): higher than 1.0 mg/kg | Activity on MVD compared with GPI (in words) (mouse vas deferens (MVD)): higher activity on GPI

Tyr-D-Ala-Gly-MePhe-Met(O)-ol
Activity on MVD compared with GPI (in words) (mouse vas deferens (MVD)): twice as active on GPI as on MVD

Tyr-D-Ala-Gly-Phe-D-Leu
Activity on MVD compared with GPI (in words) (mouse vas deferens (MVD)): more active on MVD than on GPI

Y[dM]GFP-NH2
Activity on MVD compared with GPI (in words) (mouse vas deferens (MVD)): the same level of activity on both preparations

β-Endorphine: β-Endorphine of natural occurrence (a 31-membered polypeptide) (YGGFMTSEKSQTPLVTLFKNAIIKNAYKKGE; Beta-endorphin; UniProt P01189 237-267, looked up)
Activity on MVD compared with GPI (in words) (mouse vas deferens (MVD)): equally active on GPI and MVD

From patent publication US4339440A, “Enkephalin analogs and a process for the preparation thereof” (priority 1980, dated 1982)
